PubChem BioAssay (NCI)
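Step 1: Grow cells in 96-well plates. Step 2: Expose to compound for 48 hours at 5 concentrations. Step 3: Interpolate endpoints linearly; if unreached, use highest concentration. TGI is the concentration that stops growth completely.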

Columns and labels:
Assay in all cases: NCI tumour cell line growth inhibition, 48 h
[1] = system: 786-0 renal
[2] = system: A498 renal
[3] = system: A549 NSCLC
[4] = system: ACHN renal
[5] = system: BT-549 breast
[6] = system: CAKI-1 renal
[7] = system: CCRF-CEM leukemia
[8] = system: COLO 205 colon
[9] = system: DU-145 prostate
[10] = system: EKVX NSCLC
[11] = system: HCC-2998 colon
[12] = system: HCT-116 colon
[13] = system: HCT-15 colon
[14] = system: HL-60(TB) leukemia
[15] = system: HOP-62 NSCLC
[16] = system: HOP-92 NSCLC
[17] = system: HS 578T breast
[18] = system: HT29 colon
[19] = system: IGROV1 ovarian
[20] = system: K-562 leukemia
[21] = system: KM12 colon
[22] = system: LOX IMVI melanoma
[23] = system: M14 melanoma
[24] = system: MALME-3M melanoma
[25] = system: MCF7 breast
[26] = system: MDA-MB-231 breast
[27] = system: MDA-MB-435
[28] = system: MDA-N
[29] = system: MOLT-4 leukemia
[30] = system: NCI-H23 lung
[31] = system: NCI-H460 lung
[32] = system: NCI-H522 lung
[33] = system: NCI/ADR-RES ovarian
[34] = system: OVCAR-3 ovarian
[35] = system: OVCAR-4 ovarian
[36] = system: OVCAR-5 ovarian
[37] = system: OVCAR-8 ovarian
[38] = system: PC-3 prostate
[39] = system: RPMI-8226 leukemia
[40] = system: RXF 393 renal
[41] = system: SF-268 CNS
[42] = system: SF-295 CNS
[43] = system: SF-539 CNS
[44] = system: SK-MEL-2 melanoma
[45] = system: SK-MEL-28 melanoma
[46] = system: SK-MEL-5 melanoma
[47] = system: SK-OV-3 ovarian
[48] = system: SN12C renal
[49] = system: SNB-19 CNS
[50] = system: SNB-75 CNS
[51] = system: SW-620 colon
[52] = system: T-47D breast
[53] = system: TK-10 renal
[54] = system: U251 CNS
[55] = system: UACC-257 melanoma
[56] = system: UACC-62 melanoma
[57] = system: UO-31 renal
[58] = system: NCI-H226 lung
[59] = system: SR leukemia

Compound: CC1CN=C(c2cccc(OCc3ccc(COc4cccc(C5=NCC(C)N5)c4)cc3)c2)N1 (centres undefined)
- TGI [1]: > 100 µM
- TGI [2]: > 100 µM
- TGI [3]: > 100 µM
- TGI [4]: > 100 µM
- TGI [5]: > 100 µM
- TGI [6]: > 100 µM
- TGI [7]: 66.8 µM
- TGI [8]: 39 µM
- TGI [9]: > 100 µM
- TGI [10]: > 100 µM
- TGI [11]: 48.4 µM
- TGI [12]: > 100 µM
- TGI [13]: > 100 µM
- TGI [14]: > 100 µM
- TGI [15]: > 100 µM
- TGI [16]: > 100 µM
- TGI [17]: > 100 µM
- TGI [18]: > 100 µM
- TGI [19]: > 100 µM
- TGI [20]: > 100 µM
- TGI [21]: 81.7 µM
- TGI [22]: 62.1 µM
- TGI [23]: > 100 µM
- TGI [24]: > 100 µM
- TGI [25]: > 100 µM
- TGI [26]: > 100 µM
- TGI [27]: > 100 µM
- TGI [28]: > 100 µM
- TGI [29]: 57.3 µM
- TGI [30]: > 100 µM
- TGI [31]: 78.5 µM
- TGI [32]: > 100 µM
- TGI [33]: > 100 µM
- TGI [34]: > 100 µM
- TGI [35]: > 100 µM
- TGI [36]: > 100 µM
- TGI [37]: > 100 µM
- TGI [38]: > 100 µM
- TGI [39]: 45.4 µM
- TGI [40]: > 100 µM
- TGI [41]: > 100 µM
- TGI [42]: > 100 µM
- TGI [43]: 98.7 µM
- TGI [44]: 79.7 µM
- TGI [45]: > 100 µM
- TGI [46]: > 100 µM
- TGI [47]: > 100 µM
- TGI [48]: > 100 µM
- TGI [49]: > 100 µM
- TGI [50]: 91.4 µM
- TGI [51]: > 100 µM
- TGI [52]: > 100 µM
- TGI [53]: > 100 µM
- TGI [54]: > 100 µM
- TGI [55]: 44.8 µM
- TGI [56]: > 100 µM
- TGI [57]: > 100 µM

Compound: O=C1C=CC(=O)c2c(O)c(N3CCSCC3)c(Cl)c(O)c21
- TGI [3]: 1.79 µM
- TGI [4]: 1.48 µM
- TGI [6]: 1.73 µM
- TGI [9]: 2.02 µM
- TGI [12]: 1.03 µM
- TGI [16]: 2.21 µM
- TGI [17]: 2.18 µM
- TGI [18]: 1.47 µM
- TGI [19]: 2 µM
- TGI [21]: 1.38 µM
- TGI [22]: 0.362 µM
- TGI [23]: 1.05 µM
- TGI [24]: 1.34 µM
- TGI [26]: 1.03 µM
- TGI [27]: 1.94 µM
- TGI [28]: 1.48 µM
- TGI [29]: 3.82 µM
- TGI [58]: 1.82 µM
- TGI [30]: 0.689 µM
- TGI [31]: 1.71 µM
- TGI [32]: 1.29 µM
- TGI [35]: 1.77 µM
- TGI [40]: 0.781 µM
- TGI [41]: 1.74 µM
- TGI [44]: 0.603 µM
- TGI [45]: 2.16 µM
- TGI [46]: 1.69 µM
- TGI [47]: 4 µM
- TGI [59]: 1.24 µM
- TGI [51]: 0.548 µM
- TGI [52]: 2.29 µM
- TGI [53]: 1.56 µM
- TGI [55]: 2.88 µM
- TGI [56]: 1.75 µM
- TGI [57]: 1.81 µM

Compound: O=C1c2cc3c(cc2CC12Cc1cc4c(cc1C2)CCC4)CCC3
- TGI [1]: > 100 µM
- TGI [2]: > 100 µM
- TGI [3]: > 100 µM
- TGI [4]: > 100 µM
- TGI [6]: > 100 µM
- TGI [7]: > 100 µM
- TGI [8]: > 100 µM
- TGI [9]: > 100 µM
- TGI [10]: > 100 µM
- TGI [11]: > 100 µM
- TGI [12]: > 100 µM
- TGI [13]: > 100 µM
- TGI [14]: > 100 µM
- TGI [15]: > 100 µM
- TGI [16]: > 100 µM
- TGI [17]: > 100 µM
- TGI [18]: > 100 µM
- TGI [19]: > 100 µM
- TGI [20]: > 100 µM
- TGI [21]: > 100 µM
- TGI [22]: > 100 µM
- TGI [23]: > 100 µM
- TGI [24]: > 100 µM
- TGI [25]: > 100 µM
- TGI [26]: > 100 µM
- TGI [27]: > 100 µM
- TGI [28]: > 100 µM
- TGI [29]: > 100 µM
- TGI [30]: > 100 µM
- TGI [31]: > 100 µM
- TGI [32]: > 100 µM
- TGI [33]: > 100 µM
- TGI [34]: > 100 µM
- TGI [35]: > 100 µM
- TGI [36]: > 100 µM
- TGI [37]: > 100 µM
- TGI [38]: > 100 µM
- TGI [39]: > 100 µM
- TGI [40]: > 100 µM
- TGI [41]: > 100 µM
- TGI [42]: > 100 µM
- TGI [43]: > 100 µM
- TGI [44]: > 100 µM
- TGI [45]: > 100 µM
- TGI [46]: > 100 µM
- TGI [47]: > 100 µM
- TGI [48]: > 100 µM
- TGI [49]: > 100 µM
- TGI [50]: > 100 µM
- TGI [59]: > 100 µM
- TGI [51]: > 100 µM
- TGI [52]: > 100 µM
- TGI [53]: > 100 µM
- TGI [54]: > 100 µM
- TGI [55]: > 100 µM
- TGI [57]: > 100 µM

Compound: C=C[C@]1(C)CC[C@]2(C)C(CC[C@@]3(C)C2C[C@H](O)[C@H](O)[C@@]3(C)O)C1 (some centres undefined)
- TGI [1]: > 100 µM
- TGI [2]: > 100 µM
- TGI [3]: > 100 µM
- TGI [4]: > 100 µM
- TGI [5]: > 100 µM
- TGI [6]: > 100 µM
- TGI [7]: > 100 µM
- TGI [8]: > 100 µM
- TGI [9]: > 100 µM
- TGI [10]: > 100 µM
- TGI [11]: > 100 µM
- TGI [12]: > 100 µM
- TGI [13]: > 100 µM
- TGI [14]: > 100 µM
- TGI [15]: > 100 µM
- TGI [17]: > 100 µM
- TGI [18]: > 100 µM
- TGI [19]: > 100 µM
- TGI [20]: > 100 µM
- TGI [21]: > 100 µM
- TGI [22]: > 100 µM
- TGI [23]: > 100 µM
- TGI [24]: > 100 µM
- TGI [25]: > 100 µM
- TGI [26]: > 100 µM
- TGI [27]: > 100 µM
- TGI [28]: > 100 µM
- TGI [29]: > 100 µM
- TGI [58]: > 100 µM
- TGI [30]: > 100 µM
- TGI [31]: > 100 µM
- TGI [32]: > 100 µM
- TGI [33]: > 100 µM
- TGI [34]: > 100 µM
- TGI [36]: > 100 µM
- TGI [37]: > 100 µM
- TGI [38]: > 100 µM
- TGI [39]: > 100 µM
- TGI [41]: > 100 µM
- TGI [42]: > 100 µM
- TGI [43]: > 100 µM
- TGI [44]: > 100 µM
- TGI [45]: > 100 µM
- TGI [46]: > 100 µM
- TGI [47]: > 100 µM
- TGI [48]: > 100 µM
- TGI [49]: > 100 µM
- TGI [50]: > 100 µM
- TGI [59]: > 100 µM
- TGI [51]: > 100 µM
- TGI [52]: > 100 µM
- TGI [53]: > 100 µM
- TGI [54]: > 100 µM
- TGI [55]: > 100 µM
- TGI [56]: > 100 µM
- TGI [57]: > 100 µM
